Assay results taken from patent US11352399B2, “Peptide for toll-like receptor (TLR) inhibition and pharmaceutical composition comprising same” (GENESEN CO., LTD., priority 2017, dated 2022).

Assays:
TLR9 = target: T1, TLR9 (Mus musculus, UniProt Q9EQU3); assay: TNF-α secretion in RAW 264.7 cells with CpG-ODN; format: cell-based
T1 construct: host or cells: RAW 264.7
T1 sequence (Q9EQU3 26-1032): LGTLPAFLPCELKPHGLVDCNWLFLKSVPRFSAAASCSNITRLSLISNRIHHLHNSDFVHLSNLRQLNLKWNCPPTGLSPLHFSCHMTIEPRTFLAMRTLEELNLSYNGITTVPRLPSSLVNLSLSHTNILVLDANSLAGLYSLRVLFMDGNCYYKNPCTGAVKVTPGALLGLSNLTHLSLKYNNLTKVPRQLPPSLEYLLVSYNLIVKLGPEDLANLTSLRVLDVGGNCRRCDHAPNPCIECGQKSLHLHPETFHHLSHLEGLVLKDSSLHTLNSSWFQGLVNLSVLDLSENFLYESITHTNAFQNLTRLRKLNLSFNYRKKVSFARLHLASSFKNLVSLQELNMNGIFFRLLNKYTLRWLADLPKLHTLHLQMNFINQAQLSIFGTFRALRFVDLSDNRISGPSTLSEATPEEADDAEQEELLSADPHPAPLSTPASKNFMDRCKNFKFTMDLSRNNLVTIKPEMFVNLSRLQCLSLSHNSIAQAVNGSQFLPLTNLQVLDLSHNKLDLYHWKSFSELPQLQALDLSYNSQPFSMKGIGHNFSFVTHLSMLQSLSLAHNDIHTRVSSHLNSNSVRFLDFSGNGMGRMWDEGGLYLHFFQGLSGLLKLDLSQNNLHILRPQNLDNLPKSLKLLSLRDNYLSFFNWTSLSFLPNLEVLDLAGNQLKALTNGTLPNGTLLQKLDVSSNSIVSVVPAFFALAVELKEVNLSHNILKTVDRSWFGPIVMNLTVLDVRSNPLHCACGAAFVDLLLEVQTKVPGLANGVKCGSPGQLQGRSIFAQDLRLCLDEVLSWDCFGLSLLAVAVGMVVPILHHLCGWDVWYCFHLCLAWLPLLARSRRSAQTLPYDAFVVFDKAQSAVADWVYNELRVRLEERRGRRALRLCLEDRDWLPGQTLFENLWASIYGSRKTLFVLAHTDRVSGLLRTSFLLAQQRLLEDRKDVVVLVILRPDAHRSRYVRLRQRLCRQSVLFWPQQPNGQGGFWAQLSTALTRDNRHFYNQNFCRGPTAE

NLRP3 inflammasome = assay: Western blotting of NLRP3 inflammasome molecules in LPS/ATP-treated mBMDM cells; format: cell-based, mouse

In the case of RQIKIWFQNRRMKWKKSHCRVLLI (TIP1), the “secretion level of TNF-α” value (TLR9) is reported as “decreased”, the “intracellular expression level of NLRP3” value (NLRP3 inflammasome) is reported as “remarkably decreased” and the “intracellular expression level of active caspase-1 (10 kDa)” value (NLRP3 inflammasome) is reported as “remarkably decreased”. For the same sequence, the “intracellular expression level of mature IL-1β (17 kDa)” value (NLRP3 inflammasome) was “remarkably decreased”.
